Columns and labels:
Assay in all cases: relative viability (nuclei count vs DMSO), 5 days (fraction); higher = more cells survive
[1] = compound: CC1=CC(=CC=C1)NC2=NC(=CS2)C3=CC=NC=C3 + Nc1nc2[nH]cc(CCc3ccc(C(=O)N[C@@H](CCC(=O)O)C(=O)O)cc3)c2c(=O)[nH]1 [Pemetrexed] (partner 0.2 µM)
Summary of the method: (§1)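 Lung cancer cell lines were seeded in 1536-well plates and dosed by pin tool the next day, with either a single drug or a fixed anchor-drug dose combined with five library-drug doses (not always all listed) spaced in √10 steps. Five days later, one step fixed the cells and stained their nuclei (final 0.05% Triton X-100, 1% formaldehyde, 1 ug/ml Hoechst), and nuclei were counted on 4× images. Relative viability is the nuclei count in treated wells divided by the count in vehicle wells, and each value is the median of duplicate plates.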

[2] = compound: CC1=CC(=CC=C1)NC2=NC(=CS2)C3=CC=NC=C3 + O=C(c1cc(Cc2n[nH]c(=O)c3ccccc23)ccc1F)N1CCN(C(=O)C2CC2)CC1 [Olaparib] (partner 8 µM)
Summary of the method: as §1

Masitinib + Pictilisib = compound: Cc1ccc(NC(=O)c2ccc(CN3CCN(C)CC3)cc2)cc1Nc1nc(-c2cccnc2)cs1 [Masitinib] + CS(=O)(=O)N1CCN(Cc2cc3nc(-c4cccc5[nH]ncc45)nc(N4CCOCC4)c3s2)CC1 [Pictilisib] (partner 1 µM)
Summary of the method: as §1

Masitinib + Vorinostat = compound: Cc1ccc(NC(=O)c2ccc(CN3CCN(C)CC3)cc2)cc1Nc1nc(-c2cccnc2)cs1 [Masitinib] + O=C(CCCCCCC(=O)Nc1ccccc1)NO [Vorinostat] (partner 1 µM)
Summary of the method: as §1

Row | Cell Line | relative viability ([1]; first compound 0.08 µM) | relative viability ([1]; first compound 0.253 µM) | relative viability ([1]; first compound 0.8 µM) | relative viability ([1]; first compound 2.53 µM) | relative viability ([1]; first compound 8 µM) | relative viability ([2]; first compound 0.08 µM) | relative viability ([2]; first compound 0.253 µM) | relative viability ([2]; first compound 0.8 µM) | relative viability ([2]; first compound 2.53 µM) | relative viability ([2]; first compound 8 µM) | relative viability (Masitinib + Pictilisib; first compound 0.01 µM) | relative viability (Masitinib + Pictilisib; first compound 0.03162 µM) | relative viability (Masitinib + Pictilisib; first compound 0.1 µM) | relative viability (Masitinib + Pictilisib; first compound 0.3162 µM) | relative viability (Masitinib + Pictilisib; first compound 1 µM) | relative viability (Masitinib + Vorinostat; first compound 0.01 µM) | relative viability (Masitinib + Vorinostat; first compound 0.03162 µM) | relative viability (Masitinib + Vorinostat; first compound 0.1 µM) | relative viability (Masitinib + Vorinostat; first compound 0.3162 µM) | relative viability (Masitinib + Vorinostat; first compound 1 µM)
1 | NCI-H2347 | 0.431 | 0.42 | 0.41 | 0.404 | 0.385 | 0.47 | 0.536 | 0.538 | 0.568 | 0.48 | 0.742 | 0.646 | 0.668 | 0.825 | 0.685 | 0.601 | 0.543 | 0.647 | 0.651 | 0.624
2 | NCI-H2405 | 0.921 | 0.985 | 0.999 | – | 0.903 | 0.751 | 0.75 | 0.677 | – | 0.723 | 0.434 | 0.382 | 0.445 | 0.302 | 0.332 | 0.791 | 0.937 | 0.858 | 0.938 | 0.909
3 | NCI-H3122 | 0.202 | 0.202 | 0.191 | 0.226 | 0.19 | 0.578 | 0.591 | 0.548 | 0.587 | 0.457 | 0.579 | 0.623 | 0.595 | 0.677 | 0.574 | 0.844 | 0.982 | 1.15 | 1.14 | 1.05
4 | PC-3 [JPC-3] | 0.909 | – | 1.15 | 0.961 | 1.05 | 0.926 | – | 1.01 | 1.07 | 0.924 | 0.71 | 0.761 | 0.761 | 0.459 | 0.656 | 0.753 | 0.554 | 0.779 | 0.748 | 0.667
5 | PC-14 | 0.144 | 0.131 | 0.141 | 0.134 | 0.136 | 0.298 | 0.289 | 0.289 | 0.238 | 0.162 | 0.603 | 0.613 | 0.77 | 0.747 | 0.657 | 0.716 | 0.79 | 0.767 | 0.691 | 0.865
6 | RERF-LC-KJ | 0.518 | 0.488 | 0.506 | 0.361 | 0.474 | 0.509 | 0.258 | 0.184 | 0.181 | 0.163 | 0.496 | 0.514 | 0.617 | 0.404 | 0.457 | 0.587 | 0.783 | 0.752 | 0.541 | 0.646
7 | SK-LU-1 | 0.906 | 1.03 | 0.691 | 0.997 | 0.937 | 0.49 | 0.435 | – | 0.459 | 0.433 | 0.483 | 0.53 | 0.643 | 0.549 | 0.518 | 0.779 | 0.844 | 0.744 | 0.926 | 0.774
8 | SK-MES-1 | 0.757 | 0.762 | 0.787 | 0.822 | 0.862 | 0.423 | 0.437 | 0.466 | 0.457 | 0.401 | 0.346 | 0.312 | 0.406 | 0.332 | 0.371 | 0.876 | 1.15 | 1.03 | 0.984 | 1.07
9 | SW 1573 | 0.835 | 0.746 | 0.787 | 0.763 | 0.763 | 0.486 | 0.544 | 0.526 | 0.465 | 0.441 | 0.471 | 0.542 | 0.478 | 0.472 | 0.452 | 0.645 | 0.763 | 0.929 | 0.968 | 0.973

— the supplement of paper PMC10307832
